Patent publication US6979682B2, “Platelet-activating factor antagonist inhibition of angiogenesis and tumor growth induced by basic fibroblast” (Board of Supervisors of Louisiana State University and …, priority 2001, dated 2005)

Key:
[1] = tested on: 201T cells; test: in vitro cell growth assay, [3H]thymidine incorporation, 201T; format: cell-based, human
Experimental: (§1) The human prostatic carcinoma cell line PC-3 was grown in RPMI 1640 (Life Technologies, Grand Island, […].) supplemented with 10% fetal bovine serum (“FBS”, Life Technologies). The human cell line 201T was established from a poorly differentiated lung adenocarcinoma, as previously described using the method of J. M. Siegfried et al., “Secretion of autocrine growth factors by cultured lung tumors: effects on neoplastic lung epithelial cells,” Lung Cancer, vol. 4, pp. 205–209 (1988). See also J. P. Hamide et al., “Percutaneous implantation of non-small cell lung carcinoma: technique and observations,” Academ. Radiolo., vol. 4, pp. 629–633 (1997). The cell line was grown in a medium conditioned for 48 hours by the cell line A549 (ATCC CCL-185) containing 1% FBS (HyClone Laboratories, Logan, Utah) as previously described in J. M. Siegfried, “Culture of primary lung tumors using medium conditioned by a lung carcinoma cell line,” J. Cell. Biochem., vol. 41, pp. 91–95 (1988). This medium is referred to as CM+1% FBS.
(§2) PC-3 cells were exposed to 0, 0.1, 1, 2.5, 5, and 10 μM BN-50730 in RPMI medium supplemented with 10% FBS and [^3H]thymidine (Amersham Life Science, Arlington Heights, Ill.). 201T cells were exposed to 0, 0.1, 1, 2.5, 5, and 10 μM BN-50730 in CM+1% FBS supplemented with [^3H]thymidine. […] PC-3 and 201T cells were also exposed to 10 μM BN-50730 for 24, 48, 72 and 144 hours, and cell growth assessed as above.

[2] = tested on: PAF binding sites (microsomal intracellular membranes; synaptosomal plasma membrane); settings: Marcheselli and Bazan, 1994; cited from earlier work
[3] = tested on: PC-3 cells; test: in vitro cell growth assay, [3H]thymidine incorporation, PC-3; format: cell-based, human
Experimental: as §1
as §2, with “Ill.).” for “Ill.). 201T cells were exposed to 0, 0.1, 1, 2.5, 5, and 10 μM BN-50730 in CM+1% FBS supplemented with [^3H]thymidine.”, “above. […]” for “above.”

[4] = tested on: human umbilical vein endothelial cells (HUVEC); test: HUVEC proliferation, [3H]thymidine incorporation; format: cell-based
Experimental: Human umbilical vein endothelial cells (“HUVEC”) were propagated in one of three growth media depending on the experimental conditions. HUVEC were maintained in endothelial basal medium (“EBM-2”) (Clonetics, Walkersville, Md.) supplemented with 2% FBS (Clonetics). HUVEC were also grown in endothelial growth medium (“EGM”) (Clonetics), which contained 3 mg/ml (protein content) bovine brain extract, 10 ng/ml EGF ([…]), 1 μg/ml hydrocortisone, 2% FBS, gentamicin, and amphotericin-B. HUVEC were likewise grown in EGM-2, supplemented with VEGF ([…]), R^3-IGF-1 (long recombinant-3 insulin-like growth factor-1), ascorbic acid, heparin, 2% FBS, EGF, bFGF, gentamicin, and amphotericin-B.
Based on the above in vitro tumor data, the effect of BN-50730 on tumor growth is believed to result from inhibition of angiogenesis. To test this theory, the effect of BN-50730 on angiogenesis of HUVEC cells was measured using two growth media designed to induce rapid proliferation, EGM or EGM-2. HUVEC growth was measured by [^3H]thymidine incorporation into DNA.
As many tumors are known to produce angiogenesis-inducing factors, an experiment was conducted to test for increased proliferation of HUVEC cells exposed to 201T-conditioned medium. 201T cells were allowed to condition basal medium (EBM supplemented with 2% FBS) for 48 hr. […] EGM-2 is a medium containing the growth factors bFGF, VEGF, IGF-1, and EGF.
To characterize the inhibitory effects of BN-50730 on HUVEC proliferation, a series of growth assays was performed in which growth factors were either added or omitted singly from the growth medium in the presence or absence of BN-50730. The cells were grown in a medium supplemented with [^3H]thymidine, in either the presence or absence of BN-50730. Cells that proliferate will incorporate [^3H]thymidine into their DNA. In the first experiment, individual growth factors VEGF, IGF-1, bFGF, or EGF were added to EBM-2 supplemented with 2% FBS. […] This experiment supports the hypothesis that different cellular mechanisms use different peptide growth factors.
In a subsequent experiment, mixtures of the growth factors were analyzed, with only one growth factor absent from the medium, and each of the other three were present, in the presence or absence of 10 μM BN-50730. […] However, no reduction was seen when bFGF was absent.

Which “201T cell growth, time course: onset of growth inhibition” value ([1]; 10 μM, six-day time course) does the source give for `COc1ccc(NC(=O)N2CCc3c(sc4c3C(c3ccccc3Cl)=NCc3nnc(C)n3-4)C2)cc1` [BN-50730, tetrahydro-4,7,8,10 methyl-1 (chloro-2 phenyl)-6 (methoxy-4 phenyl-carbomoyl)-9 pyrido [4′,3′-4,5] thieno [3,2-f] triazolo-1,2,4[4,3-α]diazepine-1,4] here?
The value was “growth inhibition was manifested after 72 hr of exposure”.

And the “201T cell growth, time course curves treated vs untreated” value ([1]; 10 μM, up to 144 hr, p=0.081, F-test)?
Its value is “not statistically different”.

And the “201T cell growth, concentration response” value ([1]; 0.01-10 μM for four days, p<0.005 at or above 1.0 μM)?
The value was “concentration-dependent reduction in growth”.

And the “displacement of PAF from microsomal membranes” value [2]?
The value was “displace PAF from microsomal membranes”.

And the “displacement of PAF from the synaptosomal, plasma membrane” value [2]?
Its value is “not from the synaptosomal, plasma membrane”.

What about the “PC-3 cell proliferation, time course” value ([3]; 10 μM at 1, 2, 3 or 6 days, p=0.556, F-test) of the same molecule?
Its value is “no effect”.

What about the “PC-3 cell proliferation, concentration response” value ([3]; 0.01, 0.1, 1, 2.5, 5, 10 μM for 4 days, p=0.529 for 10 μM) of the same molecule?
The value was “not affected”.

What about the “HUVEC growth in EGM or EGM-2 medium” value ([4]; 5 μM, both growth conditions, p=0.001, Student's t-test) of the same molecule?
The value was “significantly reduced the growth of HUVEC”.

What about the “stimulation of HUVEC growth in 201T-conditioned medium or EGM-2 medium” value ([4]; 5 μM, either medium) of the same molecule?
Its value is “inhibited”.

What about the “HUVEC growth in medium containing EGF as single growth factor” value ([4]; 10 μM, EBM-2 + 2% FBS + EGF) of the same molecule?
The value was “No difference”.

What about the “HUVEC growth in medium containing IGF-1 as single growth factor” value ([4]; 10 μM, EBM-2 + 2% FBS + IGF-1) of the same molecule?
Its value is “No difference”.

What about the “HUVEC growth in medium containing VEGF as single growth factor” value ([4]; 10 μM, EBM-2 + 2% FBS + VEGF, p=0.036) of the same molecule?
Its value is “small, but significant”.

What about the “HUVEC growth in medium containing bFGF as single growth factor” value ([4]; 10 μM, EBM-2 + 2% FBS + bFGF, p=0.0002) of the same molecule?
Its value is “larger reduction”.

And the “HUVEC growth in medium with bFGF absent” value ([4]; 10 μM, VEGF, IGF-1 and EGF present)?
Its value is “no reduction”.

What about the “HUVEC growth in medium lacking only VEGF, IGF-1 or EGF” value ([4]; 10 μM, other three growth factors present) of the same molecule?
Its value is “reduction in growth”.
